# Measured values from patent US10590113B2, “6-hydroxy-4-oxo-1,4-dihydropyrimidine-5-carboxamides as APJ agonists” (priority 2016, dated 2020).
# Biological target: T1, human APJ receptor (Homo sapiens, UniProt P35414)
# T1 construct: expressed in transfected cells; host or cells: HEK293
# T1 sequence (P35414 1-380): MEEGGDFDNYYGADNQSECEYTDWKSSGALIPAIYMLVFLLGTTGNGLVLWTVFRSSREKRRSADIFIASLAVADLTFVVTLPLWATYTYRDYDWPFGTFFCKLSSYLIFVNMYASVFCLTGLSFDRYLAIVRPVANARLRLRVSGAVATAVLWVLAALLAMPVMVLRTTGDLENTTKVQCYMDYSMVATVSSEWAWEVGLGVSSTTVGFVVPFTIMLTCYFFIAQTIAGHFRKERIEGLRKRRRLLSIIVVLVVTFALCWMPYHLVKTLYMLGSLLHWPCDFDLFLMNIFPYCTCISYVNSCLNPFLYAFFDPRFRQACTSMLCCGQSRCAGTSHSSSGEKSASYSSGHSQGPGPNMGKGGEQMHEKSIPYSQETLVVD
# Test: Intracellular cAMP Accumulation Assay (APJ hcAMP, HTRF)
# Type: cell-based
# Conditions: human APJ, cAMP accumulation; potency range class; read-out: hAPJ cAMP EC50 Potency range
# How it was run: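 Stably transfected HEK293 cells (5,000/well) incubated 30 min at room temperature with serially diluted compound, […] and 2 μM forskolin. cAMP measured by HTRF after 60 min with detection reagents, quantified against a cAMP standard curve; EC50 from variable-slope sigmoidal fit of inhibition of forskolin-stimulated cAMP.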
row,EC50 [nM],Compound
1,0.01 to 10,"COc1cccc(OC)c1-n1c(-c2ccc(Cl)cn2)nc(=O)c(C(=O)N2CCC(c3ccc(F)cc3F)C2)c1O (single isomer, unassigned) [Example 287, 2-(5-chloropyridin-2-yl)-5-[3-(2,4-difluorophenyl)pyrrolidine-1-carbonyl]-1-(2,6-dimethoxyphenyl)-6-hydroxy-1,4-dihydropyrimidin-4-one]"
2,0.01 to 10,"CCc1cccc(CC)c1-n1c(-c2csc(C(C)C)n2)nc(=O)c(C(=O)N2CCC(c3ncc(F)cc3F)C2)c1O (single isomer, unassigned) [Example 297, 1-(2,6-diethylphenyl)-5-[3-(3,5-difluoropyridin-2-yl)pyrrolidine-1-carbonyl]-6-hydroxy-2-[2-(propan-2-yl)-1,3-thiazol-4-yl]-1,4-dihydropyrimidin-4-one]"

# Same assay, conditions: human APJ, intracellular cAMP accumulation; read-out: hAPJ cAMP EC50 Potency range
row,Compound,EC50 [nM]
1,"CCCCc1nc(=O)c(C(=O)N2CC[C@@H](c3ccccc3)C2)c(O)n1[C@H](C)c1ccccc1OC [Example 135, 2-butyl-6-hydroxy-3-[(1R)-1-(2-methoxyphenyl)ethyl]-5-[(3S)-3-phenylpyrrolidine-1-carbonyl]-3,4-dihydropyrimidin-4-one]",10 to 100
2,"CCCCc1nc(=O)c(C(=O)N2CC[C@@H](c3ccccc3)C2)c(O)n1C(c1ccccc1)C(C)C (stereo partly drawn) [Example 129, 2-butyl-6-hydroxy-3-(2-methyl-1-phenylpropyl)-5-[(3S)-3-phenylpyrrolidine-1-carbonyl]-3,4-dihydropyrimidin-4-one]",10 to 100
3,"CCCCc1nc(=O)c(C(=O)N2CC[C@@H](c3ccccc3)C2)c(O)n1[C@@H](C)c1cccc(OC)c1 [Example 120, 2-butyl-6-hydroxy-3-[(1S)-1-(3-methoxyphenyl)ethyl]-5-[(3S)-3-phenylpyrrolidine-1-carbonyl]-3,4-dihydropyrimidin-4-one]",0.01 to 10
4,"CCCCc1nc(=O)c(C(=O)N2CCC(c3cccc(F)c3)C2)c(O)n1[C@@H](CC)c1ccccc1 (single isomer, unassigned) [Example 115]",0.01 to 10
5,"CC[C@@H](c1cc(F)cc(F)c1)n1c(-c2cnn(C)c2)nc(=O)c(C(=O)N2CCC(c3ccc(Cl)cn3)C2)c1O (single isomer, unassigned) [Example 183]",0.01 to 10

# The next lines start with the values.
row,EC50 [nM],Compound
1,0.01 to 10,"COc1cccc(OC)c1-n1c(COC(C)C)nc(=O)c(C(=O)N2CCC(c3ccccc3Cl)C2)c1O (single isomer, unassigned) [Example 92, 5-[3-(2-chlorophenyl)pyrrolidine-1-carbonyl]-1-(2,6-dimethoxyphenyl)-6-hydroxy-2-[(propan-2-yloxy)methyl]-1,4-dihydropyrimidin-4-one]"
2,0.01 to 10,"COc1cccc(OC)c1-n1c(CCC2CC2)nc(=O)c(C(=O)N2CC[C@H](c3ccccc3)C2)c1O [Example 96, 2-(2-cyclopropylethyl)-1-(2,6-dimethoxyphenyl)-6-hydroxy-5-[(3R)-3-phenylpyrrolidine-1-carbonyl]-1,4-dihydropyrimidin-4-one]"
3,0.01 to 10,"COc1cccc(OC)c1-n1c(COC(C)C)nc(=O)c(C(=O)N2CCC(c3ccccc3C#N)C2)c1O (single isomer, unassigned) [Example 165, 2-{1-[1-(2,6-dimethoxyphenyl)-6-hydroxy-4-oxo-2-[(propan-2-yloxy)methyl]-1,4-dihydropyrimidine-5-carbonyl]pyrrolidin-3-yl}benzonitrile]"

# Same assay, conditions: read-out: hAPJ cAMP EC50 Potency range
row,Compound,EC50 [nM]
1,"COc1cccc(OC)c1-n1c(COC(C)(C)C)nc(=O)c(C(=O)N2CCC(c3ccccc3C#N)C2)c1O (single isomer, unassigned) [Example 369, 2-(1-(2-(tert-butoxymethyl)-1-(2,6-dimethoxyphenyl)-6-hydroxy-4-oxo-1,4-dihydropyrimidine-5-carbonyl)pyrrolidin-3-yl)benzonitrile]",0.01 to 10
2,"CCCCc1nc(=O)c(C(=O)N2CCC(Oc3cccc(F)c3F)CC2)c(O)n1-c1c(OC)cccc1OC [Example 387, 2-butyl-5-(4-(2,3-difluorophenoxy)piperidine-1-carbonyl)-1-(2,6-dimethoxyphenyl)-6-hydroxypyrimidin-4(1H)-one]",0.01 to 10
